Assay results from patent US7253177B2, “Synthesis and antimalarial activity of pyrrolo[3,2-f]quinazoline-1,3-diamine derivatives” (United States of America as Represented by the Secretary of …, priority 2004, dated 2007).
≈ marks a conversion by molar mass, not a printed value.

What was measured:
[1] = Toxicity in P. cynomolgi-infected Rhesus monkeys; conditions: 12 mg/kg/day for 7 consecutive days
[2] = test system: Plasmodium falciparum TM91C235 (Southeast Asia Isolates); assay: In vitro antimalarial study, [3H]hypoxanthine uptake, TM91C235 clone; type: cell-based
Method: B. Antimalarial Activities: (a). In Vitro Antimalarial Studies. The in vitro assays were conducted by using a modification of the semiautomated microdilution technique of Desjardins et al and Chulay et al.. Four P. falciparum malaria parasite clones, from CDC Indochina III (W-2), CDC Sierra Leone I (D-6), Southeast Asia Isolates (TM91C235) and RCS (Isolates from Brazil) were utilized in susceptibility testing. They were derived by direct visualization and micromanipulation from patient isolates. The W-2 clone is susceptible to mefloquine but resistant to chloroquine, sulfadoxine, pyrimethamine, and quinine, whereas the D-6 clone is naturally resistant to mefloquine but susceptible to chloroquine, sulfadoxine, pyrimethamine and quinine. Test compounds were initially dissolved in DMSO and diluted 400 fold in RPMI 1640 culture medium supplemented with 25 mM Hepes, 32 mM NaHCO3 and 10% Albumax I (Gibco BRL, Grand Island, N.Y.). These solutions were subsequently serially diluted two-fold with a Biomek 1000 (Beckman, Fullerton, Calif.) over 11 different concentrations. The parasites were exposed to serial dilutions of each compound for 48 hrs and incubated at 37° C. with 5% O2, 5% CO2 and 90% N2 prior to the addition of [^3H]hypoxanthine. After a further incubation of 18 hrs, parasite DNA was harvested from each microtiter well using Packard Filtermate 196 Harvester (Meriden, Conn.) onto glass filters. Uptake of [^3H]hypoxanthine was measured with a Packard Topcount Scintillation. Concentration-response data were analyzed by a non-linear regression logistic dose response model and the IC50 values (50% inhibitory concentrations) for each compound were calculated. (Table 3). (b). In Vivo Antimalarial Studies against P. berghei in mice: The in vivo efficacy of the artelinic acid analogs were determined in a modified Thompson test. This test measures the survivability of mice and parasitemia clearance following administration of drug on days 3-5 post infection. In brief, 5×10^6 P. berghei-infected erythrocytes (KBG-173 strain) were inoculated intraperitoneally to female mice that weighed 24-30 g. By day three post-infection, parasitemia ranged from 1.0-3.7%. Each drug, dissolved in 5% sodium bicarbonate, was administered PO twice daily from day 3-5 post-infection. Total doses for each drug ranged from 1.5-384 mg/kg with 8 mice included in each dosage group. The percent suppression of parasitemia in the treated mice compared to the untreated controls was determined for each test compound; the SD-50 (fifty percent suppression dose) and SD-90 were determined from a non-linear regression logistic dose response fit at day 6 parasitemia data. Survival of mice to day 60 post-infection was considered a cure (C). Compounds were considered active (A) when the survival time of the treated mice was greater than twice the control mice, i.e., 12-14 day (Table 4-5). (c). Sporozoite Induced Test Each compound is ground with a mortar & pestle and suspended in 0.5% hydroxyethylcellulose—0.1% Tween 80 for compounds to be administered PO and those given SC are suspended in peanut oil. Each compound is prepared at 3 different dose levels as requested by WRAIR. Compounds are administered either PO or SC to mice once 4 hr before inoculation of sporozoites. Four-week-old male CD-1 mice, purchased from Charles River and weighing 16-17 g, are placed 5 per cage and allowed to acclimate for 4 days before being treated and then inoculated with sporozoites. They are fed food and water ad-lib and maintained at 76° F. with 12 hr light and 12 hr darkness. The cages and water bottles are changed biweekly. The mice are weighed on Days 0, 3 and 6 then biweekly when blood films are taken. Plasmodium yoelii (17×) is used to infect mice that will be used to infect the mosquitoes. Mice are given a single dose of test compound 4 hr before being inoculated intraperitoneally with 2.5×10^5 sporozoites of Plasmodium yoelii on Day 0. […]

CCOC(=O)Nc1nc(NC(=O)OCC)c2c(ccc3c2ccn3Cc2ccccc2C(F)(F)F)n1 [Compound 2b]
signs of toxicity [1]: neither 2b nor 3e exhibited any sign of toxicity | IC50 TM91C235 ([2]; P. falciparum TM91C235 clone): >250 ng/mL

CC(=O)N(C(C)=O)c1nc(N(C(C)=O)C(C)=O)c2c(ccc3c2ccn3Cc2ccccc2C(F)(F)F)n1 [Compound 3e, 1,3-Bis(diacetylamino)-7-(2-trifluoromethyl)benzyl-7H-pyrrolo[3,2-f]quinazoline]
signs of toxicity [1]: neither 2b nor 3e exhibited any sign of toxicity | IC50 ([2]; Plasmodium falciparum, read-out: IC50 TM91C235): 0.0845 ng/mL (≈ 0.161 nM)
